Reference: article PMC11563544 (Journal of Cerebral Blood Flow & Metabolism, 2024)

Test system: alpha-2C adrenergic receptor (α2CR)
Experiment: in vivo PET receptor occupancy, competition with […]ORM-13070
Set-up: species or system Macaca fascicularis

EC50: 0.03339 ± 0.01191 µg/mL
Substance: BAY 292
